Results taken from article PMC6155437 (Molecules : A Journal of Synthetic Chemistry and Natural …, 2017).

Assays:
Type in all cases: in vitro ADME
Conditions in all cases: at 50 µM
UGT1A6 = molecular target: T1, UGT1A6 (Homo sapiens, UniProt P19224); experiment: UGT1A6 N-acetylserotonin glucuronidation inhibition in human liver microsomes
T1 construct: pooled human liver microsomes (0.2 mg/mL), 5 mM UDPGA; tissue Corning Life Sciences; host or cells: pooled human liver microsomes (150 donors)
T1 sequence (P19224 27-532): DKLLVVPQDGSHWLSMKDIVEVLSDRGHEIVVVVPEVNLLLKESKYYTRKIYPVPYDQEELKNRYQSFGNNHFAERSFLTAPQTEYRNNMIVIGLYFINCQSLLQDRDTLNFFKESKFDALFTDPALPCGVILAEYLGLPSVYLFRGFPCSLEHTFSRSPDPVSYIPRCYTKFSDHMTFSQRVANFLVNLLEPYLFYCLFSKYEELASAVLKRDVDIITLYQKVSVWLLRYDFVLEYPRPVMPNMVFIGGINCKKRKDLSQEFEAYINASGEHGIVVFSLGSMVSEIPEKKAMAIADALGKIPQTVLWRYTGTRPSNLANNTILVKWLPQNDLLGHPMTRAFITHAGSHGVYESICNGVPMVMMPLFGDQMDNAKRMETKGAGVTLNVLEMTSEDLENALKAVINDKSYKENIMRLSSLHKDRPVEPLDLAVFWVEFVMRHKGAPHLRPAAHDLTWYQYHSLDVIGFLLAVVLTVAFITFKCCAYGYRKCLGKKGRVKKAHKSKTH
Description: (§1) After 3 min of pre-incubation at 37 °C, the reactions were initiated by addition of UDPGA; incubation continued for 60 min at 37 °C in a shaking water bath. The reaction was stopped by placing the tubes on ice and adding 50 µL ice-cold acetonitrile containing internal standards (propofol glucuronide for chenodeoxycholic acid 24-acyl-β-glucuronide and mycophenolic acid glucuronide, and meloxicam for SN-38 glucuronide, trifluoperazine glucuronide, N-acetylserotonin β-D-glucuronide, and naloxone 3-β-D-glucuronide). The incubation mixtures were centrifuged (13,000× g, 4 min, 4 °C). All assays were performed in triplicate and average values were used in calculations.
(§2) The metabolites formed from the six UGT cocktail substrates were measured simultaneously using the LC-MS/MS method. The ESI source settings in both positive- and negative-ion modes for metabolite ionization were: capillary voltage, 4200 V; vaporizer temperature, 350 °C; capillary temperature, 330 °C; sheath gas pressure, 35 psi; and auxiliary gas pressure, 15 psi. […] Data were processed using Xcalibur software.
(§3) The apparent kinetic parameters for inhibitory potential (Ki and kinact values) and inhibition mode were estimated from the fitted curves using the Enzyme Kinetics program (ver. 1.1; Systat Software Inc., San Jose, CA, USA).

CYP2B6 = molecular target: T2, CYP2B6 (Homo sapiens, UniProt P20813); experiment: CYP2B6 bupropion hydroxylase inhibition in ultrapool human liver microsomes
T2 construct: pooled human liver microsomes (0.2 mg/mL); tissue Corning Life Sciences; host or cells: pooled human liver microsomes (150 donors)
T2 sequence (P20813 1-491): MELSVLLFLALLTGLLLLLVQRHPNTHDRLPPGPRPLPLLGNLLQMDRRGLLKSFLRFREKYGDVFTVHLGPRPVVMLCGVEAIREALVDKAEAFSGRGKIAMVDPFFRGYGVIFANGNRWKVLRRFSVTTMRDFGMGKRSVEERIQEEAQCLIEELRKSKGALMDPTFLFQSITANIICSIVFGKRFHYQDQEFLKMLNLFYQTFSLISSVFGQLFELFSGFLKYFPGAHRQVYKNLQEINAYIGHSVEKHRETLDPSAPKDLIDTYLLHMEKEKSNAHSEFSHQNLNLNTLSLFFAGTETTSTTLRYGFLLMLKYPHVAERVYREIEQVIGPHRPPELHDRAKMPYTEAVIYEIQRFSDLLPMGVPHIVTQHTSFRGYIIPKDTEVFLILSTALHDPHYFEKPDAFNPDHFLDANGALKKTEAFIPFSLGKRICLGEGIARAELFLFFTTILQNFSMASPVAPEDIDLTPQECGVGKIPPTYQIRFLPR
Description: All incubations were performed in triplicate, and average values were used.
The metabolites formed from CYP substrates were quantified simultaneously by a LC-MS/MS method described previously. The ESI source settings in positive-ion mode for metabolite ionization were: capillary voltage, 4200 V; vaporizer temperature, 350 °C; capillary temperature, 330 °C; sheath gas pressure, 35 psi; and auxiliary gas pressure, 15 psi. […] Analytical data were processed using Xcalibur software (version 2.1, Thermo Scientific).
as §3

UGT1A1 = molecular target: T3, UGT1A1 (Homo sapiens, UniProt P22309); experiment: UGT1A1 SN-38 glucuronidation inhibition in ultrapool human liver microsomes
T3 construct: pooled human liver microsomes (0.2 mg/mL), 5 mM UDPGA; tissue Corning Life Sciences; host or cells: pooled human liver microsomes (150 donors)
T3 sequence (P22309 26-533): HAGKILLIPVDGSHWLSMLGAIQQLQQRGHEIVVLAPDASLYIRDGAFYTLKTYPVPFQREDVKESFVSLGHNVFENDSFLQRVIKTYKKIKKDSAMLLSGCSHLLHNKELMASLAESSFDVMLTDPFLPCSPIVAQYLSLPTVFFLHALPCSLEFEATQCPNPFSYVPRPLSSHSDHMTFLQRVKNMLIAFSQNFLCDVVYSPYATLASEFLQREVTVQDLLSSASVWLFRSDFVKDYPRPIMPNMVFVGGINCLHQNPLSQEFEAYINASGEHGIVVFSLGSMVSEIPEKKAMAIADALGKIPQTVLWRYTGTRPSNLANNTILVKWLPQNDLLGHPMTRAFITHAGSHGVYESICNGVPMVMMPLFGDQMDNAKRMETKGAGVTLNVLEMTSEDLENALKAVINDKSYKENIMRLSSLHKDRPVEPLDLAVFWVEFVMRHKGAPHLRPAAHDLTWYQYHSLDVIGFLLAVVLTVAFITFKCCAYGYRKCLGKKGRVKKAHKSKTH
Description: as §1, §2, §3

O=C(c1cccc2ccccc12)c1cn(CCCCCF)c2ccccc12 [AM-2201, 1-(5-fluoropentyl-1H-indol-3-yl)-(naphthalene-1-yl)methanone]
negligibly inhibited: inhibition of UGT1A6-catalyzed N-acetylserotonin glucuronidation (UGT1A6) | inhibition of CYP2B6-mediated bupropion hydroxylation (CYP2B6) | inhibition of UGT1A1-catalyzed SN-38 glucuronidation (UGT1A1)
